system: FLAP (5-lipoxygenase activating protein); test: In vitro binding test: displacement of [3H]-7-chloro-3-(5-((3-fluoropyridin-2-yl)methoxy)-2-methylphenyl)-3,4-dihydroquinazolin-2(1H)-one from Sf9 microsome fractions; set-up: species or system human and mouse; settings: Sf9 microsome fractions expressing FLAP; 100% = radioligand binding with 10 μM sodium 3-(3-(tert-butylsulfanyl)-1-(4-chlorobenzyl)-5-isopropyl-1H-indol-2-yl)-2,2-dimethylpropanoate, 0% = DMSO; test compound concentration not given
Summary of the method: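 Sf9 microsomes expressing human or mouse FLAP (2 μg/mL) preincubated with compound 10 min at room temperature, then 120 nM tritiated quinazolinone ligand added for 60 min; buffer 100 mM Tris-HCl pH 7.5 with NaCl, EDTA, DTT, glycerol, Tween20. Bound ligand filtered and counted by scintillation; 10 μM indole propanoate defines 100% inhibition, DMSO 0%.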

Row | SMILES | inhibitory rate (%)
1 | COCCn1c(=O)n(-c2cc3c(cc2C)CCC(c2ncccc2F)O3)c(=O)c2ccccc21 (centres unmarked) [Example 328, 3-(2-(3-fluoropyridin-2-yl)-6-methyl-3,4-dihydro-2H-chromen-7-yl)-1-(2-methoxyethyl)quinazoline-2,4(1H,3H)-dione] | 111
2 | COC(=O)/C=C/c1cc2c(c(C3CC3)n1)CN(c1cc3c(cc1C)CCC(c1ncccc1F)O3)C(=O)N2 (centres unmarked) [Example 89, methyl (2E)-3-(5-cyclopropyl-3-(2-(3-fluoropyridin-2-yl)-6-methyl-3,4-dihydro-2H-chromen-7-yl)-2-oxo-1,2,3,4-tetrahydropyrido[4,3-d]pyrimidin-7-yl)acrylate] | 98
3 | O=C1Nc2cc(C3CC3)nc(C3CC3)c2CN1c1ccc2c(c1)OC(c1ncccc1F)CC2 (centres unmarked) [Example 90, 5,7-dicyclopropyl-3-(2-(3-fluoropyridin-2-yl)-3,4-dihydro-2H-chromen-7-yl)-3,4-dihydropyrido[4,3-d]pyrimidin-2(1H)-one] | 118
4 | O=C1Nc2ccnc(Cl)c2CN1c1cc2c(cc1Cl)CCC(c1ncccc1F)O2 (racemic) [Example 1, 5-chloro-3-(6-chloro-2-(3-fluoropyridin-2-yl)-3,4-dihydro-2H-chromen-7-yl)-3,4-dihydropyrido[4,3-d]pyrimidin-2(1H)-one] | 94
5 | O=C1Nc2c(C3CC3)ncc(Cl)c2CN1c1cc2c(cc1Cl)CCC(c1ncccc1F)O2 (centres unmarked) [Example 143, 5-chloro-3-(6-chloro-2-(3-fluoropyridin-2-yl)-3,4-dihydro-2H-chromen-7-yl)-8-cyclopropyl-3,4-dihydropyrido[3,4-d]pyrimidin-2(1H)-one] | 89
6 | COCCNC(=O)c1cc2c(c(C3CC3)n1)CN(c1cc3c(cc1Cl)CCC(c1ncccc1F)O3)C(=O)N2 (centres unmarked) [Example 97, 3-(6-chloro-2-(3-fluoropyridin-2-yl)-3,4-dihydro-2H-chromen-7-yl)-5-cyclopropyl-N-(2-methoxyethyl)-2-oxo-1,2,3,4-tetrahydropyrido[4,3-d]pyrimidine-7-carboxamide] | 90
7 | COC(=O)c1cc2c(c(C3CC3)n1)CN(c1cc3c(cc1Cl)CCC(c1ncccc1F)O3)C(=O)N2 (centres unmarked) [Example 70, methyl 3-(6-chloro-2-(3-fluoropyridin-2-yl)-3,4-dihydro-2H-chromen-7-yl)-5-cyclopropyl-2-oxo-1,2,3,4-tetrahydropyrido[4,3-d]pyrimidine-7-carboxylate] | 101
8 | Cn1cc(-c2cc3c(c(C4CC4)n2)CN(c2cc4c(cc2Cl)CCC(c2ncccc2F)O4)C(=O)N3)cn1 (centres unmarked) [Example 100, 3-(6-chloro-2-(3-fluoropyridin-2-yl)-3,4-dihydro-2H-chromen-7-yl)-5-cyclopropyl-7-(1-methyl-1H-pyrazol-4-yl)-3,4-dihydropyrido[4,3-d]pyrimidin-2(1H)-one] | 100
9 | CCOC(=O)c1nccc2c1CN(c1cc3c(cc1C)CCC(c1ncccc1F)O3)C(=O)N2 (centres unmarked) [Example 30, ethyl 3-(2-(3-fluoropyridin-2-yl)-6-methyl-3,4-dihydro-2H-chromen-7-yl)-2-oxo-1,2,3,4-tetrahydropyrido[4,3-d]pyrimidine-5-carboxylate] | 105
10 | CCc1ccc(OCc2c(F)cccc2F)cc1N1Cc2ccc(C(=O)OC)cc2NC1=O [Example 177, methyl 3-(5-((2,6-difluorobenzyl)oxy)-2-ethylphenyl)-2-oxo-1,2,3,4-tetrahydroquinazoline-7-carboxylate] | 84
11 | CC(C)(O)c1ccc2c(c1)NC(=O)N(c1cc(OCc3c(F)cccc3F)ccc1Cc1ccccc1)C2 [Example 254, 3-(2-benzyl-5-((2,6-difluorobenzyl)oxy)phenyl)-7-(2-hydroxypropan-2-yl)-3,4-dihydroquinazolin-2(1H)-one] | 98
12 | Cc1cc2c(cc1N1Cc3cn(CC(F)(F)F)c(=O)cc3NC1=O)OC(c1ncccc1F)CC2 (centres unmarked) [Example 38, 3-(2-(3-fluoropyridin-2-yl)-6-methyl-3,4-dihydro-2H-chromen-7-yl)-6-(2,2,2-trifluoroethyl)-4,6-dihydropyrido[4,3-d]pyrimidine-2,7(1H,3H)-dione] | 104

Second part, the molecule after the results:

Row | inhibitory rate (%) | SMILES
13 | 79 | Cc1ccc(OCc2c(F)cccc2F)cc1N1Cc2cnccc2NC1=O [Example 235, 3-(5-((2,6-difluorobenzyl)oxy)-2-methylphenyl)-3,4-dihydropyrido[4,3-d]pyrimidin-2(1H)-one]
14 | 97 | Cc1ccc(OCc2ncccc2F)cc1-n1c(=O)[nH]c2cc(C(=O)NC3CC3)ccc2c1=O [Example 363, N-cyclopropyl-3-(5-((3-fluoropyridin-2-yl)methoxy)-2-methylphenyl)-2,4-dioxo-1,2,3,4-tetrahydroquinazoline-7-carboxamide]
15 | 101 | Cc1ccc(OCc2ncccc2F)cc1-n1c(=O)[nH]c2cc(N)ccc2c1=O [Example 348, 7-amino-3-(5-((3-fluoropyridin-2-yl)methoxy)-2-methylphenyl)quinazoline-2,4(1H,3H)-dione]
16 | 54 | O=C1Nc2cc(CO)ccc2CN1c1cc(OCc2c(F)cccc2F)ccc1Cc1ccccn1 [Example 317, 3-(5-((2,6-difluorobenzyl)oxy)-2-(pyridin-2-ylmethyl)phenyl)-7-(hydroxymethyl)-3,4-dihydroquinazolin-2(1H)-one]
17 | 85 | Cc1ccc(OCc2ncccc2F)cc1N1Cc2cccnc2NC1=O [Example 256, 3-(5-((3-fluoropyridin-2-yl)methoxy)-2-methylphenyl)-3,4-dihydropyrido[2,3-d]pyrimidin-2(1H)-one]
18 | 101 | Cc1ccc(OCc2ncccc2F)cc1-n1c(=O)[nH]c2ncccc2c1=O [Example 343, 3-(5-((3-fluoropyridin-2-yl)methoxy)-2-methylphenyl)pyrido[2,3-d]pyrimidine-2,4(1H,3H)-dione]
19 | 96 | N#Cc1ccc(OCc2ncccc2F)cc1N1Cc2c(Cl)cccc2NC1=O [Example 278, 2-(5-chloro-2-oxo-1,4-dihydroquinazolin-3(2H)-yl)-4-((3-fluoropyridin-2-yl)methoxy)benzonitrile]
20 | 107 | Cc1ccc(OCc2ncccc2F)cc1-n1c(=O)[nH]c2cc(Cl)ccc2c1=O [Example 351, 7-chloro-3-(5-((3-fluoropyridin-2-yl)methoxy)-2-methylphenyl)quinazoline-2,4(1H,3H)-dione]
21 | 101 | Cc1ccc(OCc2ncccc2F)cc1N1Cc2c(ccnc2C2CC2)NC1=O [Example 320, 5-cyclopropyl-3-(5-((3-fluoropyridin-2-yl)methoxy)-2-methylphenyl)-3,4-dihydropyrido[4,3-d]pyrimidin-2(1H)-one]
22 | 72 | O=C(NC1CC1)c1ccc(OCc2ncccc2F)cc1N1Cc2ccccc2NC1=O [Example 221, N-cyclopropyl-4-((3-fluoropyridin-2-yl)methoxy)-2-(2-oxo-1,4-dihydroquinazolin-3(2H)-yl)benzamide]
23 | 114 | O=c1[nH]c2ccccc2c(=O)n1-c1cc(OCc2ncccc2F)ccc1Cl [Example 344, 3-(2-chloro-5-((3-fluoropyridin-2-yl)methoxy)phenyl)quinazoline-2,4(1H,3H)-dione]

Source: US20150299188A1, “HETEROCYCLIC COMPOUND” (priority 2012, published 2015)
